In ChEMBL document CHEMBL5042526, “Design, Synthesis, and Biological Evaluation of Triazolone Derivatives as Potent PPARα/δ Dual Agonists for the Treatment of Nonalcoholic Steatohepatitis” (J Med Chem, 2022):
Activity calls are given as the source filed them.

Tests used:
Mus musculus [1] = assay: Anti-fibrosis effect in HF-CDAA-induced nonalcoholic steatohepatitis C57BL/6JNifdc mouse model assessed as expression of Acta2 marker at 10 mg/kg, po after 20 hrs by Western blot analysis; format: functional, organism-based
COS7 = assay: Agonist activity at human CAR (48 to 324 residues) in Cos7 cells transfected with LBD-Gal4 and pGL435 Gal4 UAS Luc reporter plasmid at 10 uM by reporter gene assay; format: cell-based
Mus musculus [2] = assay: In vivo agonist activity against PPARalpha/delta assessed as upregulation of Acot1 mRNA expression in C57BL/6Nifdc mouse skeletal muscle at 10 mg/kg, po for 4 days; format: functional, organism-based; settings: time 4.0 day
Mus musculus [3] = assay: In vivo agonist activity at PPARalpha/delta assessed as upregulation of Mfn2 mRNA expression in C57BL/6Nifdc mouse liver at 10 mg/kg, po for 4 days; format: functional, organism-based; settings: time 4.0 day
C2C12 = assay: Agonist activity against PPARalpha/delta (unknown origin) assessed as upregulation of Angpt14 mRNA expression in […] cells at 8 nM incubated for 12 hrs by RT-PCR analysis; format: cell-based; settings: filed as agonist
Mus musculus [4] = assay: In vivo agonist activity against PPARalpha/delta assessed as upregulation of Angptl4 mRNA expression in C57BL/6Nifdc mouse skeletal muscle at 10 mg/kg, po for 4 days; format: functional, organism-based; settings: time 4.0 day
Mus musculus [5] = assay: In vivo agonist activity against PPARalpha/delta assessed as upregulation of Abca1 mRNA expression in C57BL/6Nifdc mouse skeletal muscle at 10 mg/kg, po for 4 days; format: functional, organism-based; settings: time 4.0 day
THP-1 = assay: Anti-inflammatory activity in human THP1-derived macrophages assessed as decrease in secretion of LPS-induced IL-6 level at 8 to 200 nM for 12 hrs by ELISA kit method; format: functional, cell-based; settings: dose 8-200 nM
AML12 [6] = assay: Agonist activity against PPARalpha/delta (unknown origin) assessed as upregulation of Pdk4 mRNA expression in […] cells incubated for 12 hrs by RT-PCR analysis; format: cell-based; settings: filed as agonist, dose 8-200 nM
AML12 [7] = assay: Agonist activity against PPARalpha/delta (unknown origin) assessed as upregulation of ACADVL mRNA expression in […] cells incubated for 12 hrs by RT-PCR analysis; format: cell-based; settings: filed as agonist, dose 8-200 nM
Mus musculus [8] = assay: Anti-NASH activity in HF-CDAA-induced nonalcoholic steatohepatitis C57BL/6JNifdc mouse model assessed as lipid number at 3 to 30 mg/kg, po by H and E staining method; format: functional, organism-based; settings: dose 3-30 mg/kg
Mus musculus [9] = assay: In vivo agonist activity at PPARalpha/delta assessed as upregulation of Hmgcs2 mRNA expression in C57BL/6Nifdc mouse liver at 10 mg/kg, po for 4 days; format: functional, organism-based; settings: time 4.0 day
Mus musculus [10] = assay: In vivo agonist activity against PPARalpha/delta assessed as upregulation of Hilpda-mRNA expression in C57BL/6Nifdc mouse liver at 10 mg/kg, po for 4 days; format: functional, organism-based; settings: time 4.0 day
Mus musculus [11] = assay: In vivo agonist activity at PPARalpha/delta assessed as upregulation of Acadm-mRNA expression in C57BL/6Nifdc mouse liver at 10 mg/kg, po for 4 days; format: functional, organism-based; settings: time 4.0 day
Mus musculus [12] = assay: In vivo agonist activity against PPARalpha/delta assessed as upregulation of Hadn-mRNA expression in C57BL/6Nifdc mouse liver at 10 mg/kg, po for 4 days; format: functional, organism-based; settings: time 4.0 day
Mus musculus [13] = assay: Anti-fibrosis effect in CCl4 induced liver fibrosis C57BL/6JNifdc mouse model assessed as downregulation of alpha-SMA expression at 3 to 30 mg/kg, po after 20 hrs by Western blot analysis; format: functional, organism-based; settings: dose 3-30 mg/kg
AML12 [14] = assay: Agonist activity against PPARalpha/delta (unknown origin) assessed as upregulation of ACADVL mRNA expression in […] cells at 8 nM incubated for 12 hrs by RT-PCR analysis; format: cell-based; settings: filed as agonist
Mus musculus [15] = assay: Anti-NASH activity in HF-CDAA-induced nonalcoholic steatohepatitis C57BL/6JNifdc mouse model assessed as lipid drop size at 3 to 30 mg/kg, po by H and E staining method; format: functional, organism-based; settings: dose 3-30 mg/kg
Mus musculus [16] = assay: In vivo agonist activity against PPARalpha/delta assessed as upregulation of Mat2a mRNA expression in C57BL/6Nifdc mouse liver at 10 mg/kg, po for 4 days; format: functional, organism-based; settings: time 4.0 day
[17] = target: T1, Peroxisome proliferator-activated receptor alpha (Homo sapiens) (UniProt Q07869); settings: filed as agonist, dose 10.0 nM
T1 sequence (whole entry): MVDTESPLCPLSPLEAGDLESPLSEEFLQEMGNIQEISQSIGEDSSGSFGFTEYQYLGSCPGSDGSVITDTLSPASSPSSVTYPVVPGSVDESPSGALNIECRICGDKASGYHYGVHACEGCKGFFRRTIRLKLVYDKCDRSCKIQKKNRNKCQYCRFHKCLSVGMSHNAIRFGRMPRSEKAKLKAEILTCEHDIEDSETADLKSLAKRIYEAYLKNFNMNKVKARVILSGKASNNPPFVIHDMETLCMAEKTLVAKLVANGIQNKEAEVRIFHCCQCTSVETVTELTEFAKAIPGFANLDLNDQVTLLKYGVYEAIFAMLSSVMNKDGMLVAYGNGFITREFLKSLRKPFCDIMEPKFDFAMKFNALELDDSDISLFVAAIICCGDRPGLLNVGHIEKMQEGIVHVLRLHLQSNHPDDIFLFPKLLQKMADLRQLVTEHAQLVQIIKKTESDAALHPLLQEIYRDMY
Description: Agonist activity at PPARalpha (unknown origin) assessed as maximal activation at 10 nM relative to GW7647

Mus musculus [18] = assay: Anti-fibrosis effect in CCl4 induced liver fibrosis C57BL/6JNifdc mouse model by measuring serum triglyceride level at 3 to 30 mg/kg, po; format: functional, organism-based; settings: dose 3-30 mg/kg
Mus musculus [19] = assay: Anti-NASH activity in HF-CDAA-induced nonalcoholic steatohepatitis C57BL/6JNifdc mouse model assessed as decrease in level of serum ALT 10 mg/kg, po by automatic biochemical analysis; format: functional, organism-based
HepG2 = assay: Agonist activity against PPARalpha/delta (unknown origin) assessed as upregulation of PDK4 mRNA expression in human HepG2 cells incubated for 12 hrs by RT-PCR analysis; format: cell-based; settings: filed as agonist, dose 8-200 nM
Mus musculus [20] = assay: Anti-inflammatory activity in HF-CDAA-induced nonalcoholic steatohepatitis C57BL/6JNifdc mouse model assessed as decrease in Ccl4 mRNA expression at 10 mg/kg, po; format: functional, organism-based
Mus musculus [21] = assay: Anti-NASH activity in HF-CDAA-induced nonalcoholic steatohepatitis C57BL/6JNifdc mouse model assessed as decrease in level of serum AST 10 mg/kg, po by automatic biochemical analysis; format: functional, organism-based
Mus musculus [22] = assay: In vivo agonist activity against PPARalpha/delta assessed as upregulation of Cpt1b mRNA expression in C57BL/6Nifdc mouse skeletal muscle at 10 mg/kg, po for 4 days; format: functional, organism-based; settings: time 4.0 day
[23] = target: Voltage-gated inwardly rectifying potassium channel KCNH2 (Homo sapiens, UniProt Q12809); assay: Inhibition of hERG potassium channel in HEK293 cells upto 30 uM by whole-cell patch clamp assay; format: toxicity, cell-based
Chain of Voltage-gated inwardly rectifying potassium channel KCNH2 (Q12809 whole entry): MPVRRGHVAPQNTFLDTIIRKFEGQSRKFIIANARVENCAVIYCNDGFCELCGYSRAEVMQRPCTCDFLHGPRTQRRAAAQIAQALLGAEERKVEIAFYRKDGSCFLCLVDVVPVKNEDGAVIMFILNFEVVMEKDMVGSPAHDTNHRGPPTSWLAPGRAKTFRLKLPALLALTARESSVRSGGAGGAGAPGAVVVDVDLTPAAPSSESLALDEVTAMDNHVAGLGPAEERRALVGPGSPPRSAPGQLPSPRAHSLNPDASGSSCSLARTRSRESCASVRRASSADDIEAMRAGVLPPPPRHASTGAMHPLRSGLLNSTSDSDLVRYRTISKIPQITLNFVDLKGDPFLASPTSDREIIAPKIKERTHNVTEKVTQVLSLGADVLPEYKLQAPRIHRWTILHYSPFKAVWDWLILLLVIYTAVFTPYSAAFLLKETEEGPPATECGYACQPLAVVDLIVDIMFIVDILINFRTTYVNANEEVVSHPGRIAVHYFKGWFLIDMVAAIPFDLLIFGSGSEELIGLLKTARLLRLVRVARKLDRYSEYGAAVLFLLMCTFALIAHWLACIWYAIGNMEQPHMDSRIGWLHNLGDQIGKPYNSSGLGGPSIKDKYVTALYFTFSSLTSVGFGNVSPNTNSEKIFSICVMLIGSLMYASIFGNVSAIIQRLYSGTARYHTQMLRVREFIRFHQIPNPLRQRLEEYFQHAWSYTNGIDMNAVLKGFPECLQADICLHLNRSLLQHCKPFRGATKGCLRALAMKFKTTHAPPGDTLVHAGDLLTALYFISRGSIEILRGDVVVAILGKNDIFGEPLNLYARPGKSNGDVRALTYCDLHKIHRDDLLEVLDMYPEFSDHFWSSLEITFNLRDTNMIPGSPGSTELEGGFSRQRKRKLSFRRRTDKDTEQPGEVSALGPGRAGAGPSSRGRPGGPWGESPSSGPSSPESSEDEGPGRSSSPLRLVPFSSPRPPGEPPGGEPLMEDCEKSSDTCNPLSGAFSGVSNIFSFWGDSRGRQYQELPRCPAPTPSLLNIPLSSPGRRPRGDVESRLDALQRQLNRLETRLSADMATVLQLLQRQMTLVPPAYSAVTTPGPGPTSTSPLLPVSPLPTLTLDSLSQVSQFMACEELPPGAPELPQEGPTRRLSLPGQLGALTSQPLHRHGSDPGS

Cc1cc(Cn2ncn(-c3ccc(OC(F)(F)F)cc3)c2=O)cc(C)c1OC(C)(C)C(=O)O
Active: inhibition (INH) [23]
inactive: Activity (COS7)
110%: Emax [17]
active: Activity (Mus musculus [1]) | Activity (Mus musculus [2]) | Activity (Mus musculus [3]) | Activity (C2C12) | Activity (Mus musculus [4]) | Activity (Mus musculus [5]) | Activity (THP-1) | Activity (AML12 [6]) Dose-Dependent Effect | Activity (AML12 [7]) Dose-Dependent Effect | Activity (Mus musculus [8]) | Activity (Mus musculus [9]) | Activity (Mus musculus [10]) | Activity (Mus musculus [11]) | Activity (Mus musculus [12]) | Activity (Mus musculus [13]) | Activity (AML12 [14]) | Activity (Mus musculus [15]) | Activity (Mus musculus [16]) | Activity (Mus musculus [18]) | Activity (Mus musculus [19]) | Activity (HepG2) Dose-Dependent Effect | Activity (Mus musculus [20]) | Activity (Mus musculus [21]) | Activity (Mus musculus [22])
